Results taken from PubChem BioAssay AID1963971 (Molecular Pharmacology Branch, DTP, NCI, 2024).

Test system: 953936-095-R-J2-PDC spheroids with HUVEC/MSC, viability
Test: Anticancer human tumor 953936-095-R-J2-PDC patient-derived cervical squamous cell carcinoma cell line growth inhibition [PI3K]
Conditions: for IC50: curve of first compound; for viability, T/C: stronger effect = lower value
Outline: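 Three cell types, namely tumor cells, endothelial cells and mesenchymal stem cells, formed each spheroid. Combinations with four PI3K inhibitors were screened at clinically achievable concentrations decreasing by half-log, and spheroid viability was recorded.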

[1] = second compound 0.00316 µM, first compound 0.000316 µM
[2] = second compound 0.00316 µM, first compound 0.001 µM
[3] = second compound 0.00316 µM, first compound 0.00316 µM
[4] = second compound 0.00316 µM, first compound 0.01 µM
[5] = second compound 0.00316 µM, first compound 0.0316 µM
[6] = second compound 0.00316 µM, first compound 0.1 µM
[7] = second compound 0.01 µM, first compound 0.000316 µM
[8] = second compound 0.01 µM, first compound 0.001 µM
[9] = second compound 0.01 µM, first compound 0.00316 µM
[10] = second compound 0.01 µM, first compound 0.01 µM
[11] = second compound 0.01 µM, first compound 0.0316 µM
[12] = second compound 0.01 µM, first compound 0.1 µM
[13] = second compound 0.0316 µM, first compound 0.000316 µM
[14] = second compound 0.0316 µM, first compound 0.001 µM
[15] = second compound 0.0316 µM, first compound 0.00316 µM
[16] = second compound 0.0316 µM, first compound 0.01 µM
[17] = second compound 0.0316 µM, first compound 0.0316 µM
[18] = second compound 0.0316 µM, first compound 0.1 µM
[19] = second compound 0.1 µM, first compound 0.000316 µM
[20] = second compound 0.1 µM, first compound 0.001 µM
[21] = second compound 0.1 µM, first compound 0.00316 µM
[22] = second compound 0.1 µM, first compound 0.01 µM
[23] = second compound 0.1 µM, first compound 0.0316 µM
[24] = second compound 0.1 µM, first compound 0.1 µM
[25] = second compound 0.316 µM, first compound 0.000316 µM
[26] = second compound 0.316 µM, first compound 0.001 µM
[27] = second compound 0.316 µM, first compound 0.00316 µM
[28] = second compound 0.316 µM, first compound 0.01 µM
[29] = second compound 0.316 µM, first compound 0.0316 µM
[30] = second compound 0.316 µM, first compound 0.1 µM
[31] = second compound 1 µM, first compound 0.000316 µM
[32] = second compound 1 µM, first compound 0.001 µM
[33] = second compound 1 µM, first compound 0.00316 µM
[34] = second compound 1 µM, first compound 0.01 µM
[35] = second compound 1 µM, first compound 0.0316 µM
[36] = second compound 1 µM, first compound 0.1 µM
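Also: spheroids exposed to compounds for seven days before read-out.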

CC(=O)c1c(C)c2cnc(Nc3ccc(N4CCNCC4)cn3)nc2n(C2CCCC2)c1=O + COc1c(OCCCN2CCOCC2)ccc2c3n(c(=NC(=O)c4cnc(N)nc4)nc12)CCN3
IC50 (second compound 0.00316 µM): > 0.1 µM
IC50 (second compound 0.01 µM): > 0.1 µM
IC50 (second compound 0.0316 µM): < 0.000316 µM
IC50 (second compound 0.1 µM): < 0.000316 µM
IC50 (second compound 0.316 µM): < 0.000316 µM
IC50 (second compound 1 µM): < 0.000316 µM
viability, T/C [1]: 87.4%
viability, T/C [2]: 85.6%
viability, T/C [3]: 105%
viability, T/C [4]: 88.4%
viability, T/C [5]: 94.3%
viability, T/C [6]: 81.4%
viability, T/C [7]: 71.5%
viability, T/C [8]: 77.9%
viability, T/C [9]: 82.6%
viability, T/C [10]: 78%
viability, T/C [11]: 76.9%
viability, T/C [12]: 66.6%
viability, T/C [13]: 40.5%
viability, T/C [14]: 40.2%
viability, T/C [15]: 36.7%
viability, T/C [16]: 40.6%
viability, T/C [17]: 38.2%
viability, T/C [18]: 37.1%
viability, T/C [19]: 20.1%
viability, T/C [20]: 17.4%
viability, T/C [21]: 18.9%
viability, T/C [22]: 19.3%
viability, T/C [23]: 17.6%
viability, T/C [24]: 18.4%
viability, T/C [25]: 6.83%
viability, T/C [26]: 6.01%
viability, T/C [27]: 6.03%
viability, T/C [28]: 7.86%
viability, T/C [29]: 7.33%
viability, T/C [30]: 5.96%
viability, T/C [31]: 1.78%
viability, T/C [32]: 1.73%
viability, T/C [33]: 1.47%
viability, T/C [34]: 1.54%
viability, T/C [35]: 2.14%
viability, T/C [36]: 1.68%

CC(C)n1nc(-c2ccc3oc(N)nc3c2)c2c(N)ncnc21 + COc1c(OCCCN2CCOCC2)ccc2c3n(c(=NC(=O)c4cnc(N)nc4)nc12)CCN3
IC50 (second compound 0.00316 µM): 0.0189 µM
IC50 (second compound 0.01 µM): 0.0102 µM
IC50 (second compound 0.0316 µM): < 0.000316 µM
IC50 (second compound 0.1 µM): < 0.000316 µM
IC50 (second compound 0.316 µM): < 0.000316 µM
IC50 (second compound 1 µM): < 0.000316 µM
viability, T/C [1]: 79%
viability, T/C [2]: 86.9%
viability, T/C [3]: 84%
viability, T/C [4]: 60.3%
viability, T/C [5]: 40.3%
viability, T/C [6]: 14.4%
viability, T/C [7]: 66.7%
viability, T/C [8]: 64.8%
viability, T/C [9]: 60.1%
viability, T/C [10]: 51.5%
viability, T/C [11]: 27.8%
viability, T/C [12]: 11.2%
viability, T/C [13]: 38.8%
viability, T/C [14]: 36%
viability, T/C [15]: 31.5%
viability, T/C [16]: 23.5%
viability, T/C [17]: 16.2%
viability, T/C [18]: 7.15%
viability, T/C [19]: 18.2%
viability, T/C [20]: 15.9%
viability, T/C [21]: 14.9%
viability, T/C [22]: 11.2%
viability, T/C [23]: 8.1%
viability, T/C [24]: 4.33%
viability, T/C [25]: 6.68%
viability, T/C [26]: 6.67%
viability, T/C [27]: 5.27%
viability, T/C [28]: 4.78%
viability, T/C [29]: 3.56%
viability, T/C [30]: 2.2%
viability, T/C [31]: 1.45%
viability, T/C [32]: 1.56%
viability, T/C [33]: 1.21%
viability, T/C [34]: 1.41%
viability, T/C [35]: 1.36%
viability, T/C [36]: 1.27%

CCCS(=O)(=O)Nc1ccc(F)c(C(=O)c2c[nH]c3ncc(-c4ccc(Cl)cc4)cc23)c1F + COc1c(OCCCN2CCOCC2)ccc2c3n(c(=NC(=O)c4cnc(N)nc4)nc12)CCN3
IC50 (second compound 0.00316 µM): 5.05 µM
IC50 (second compound 0.01 µM): 4.63 µM
IC50 (second compound 0.0316 µM): < 0.0316 µM
IC50 (second compound 0.1 µM): < 0.0316 µM
IC50 (second compound 0.316 µM): < 0.0316 µM
IC50 (second compound 1 µM): < 0.0316 µM
viability, T/C [5]: 81.3%
viability, T/C [6]: 94.1%
viability, T/C (second compound 0.00316 µM, first compound 0.316 µM): 85.1%
viability, T/C (second compound 0.00316 µM, first compound 1 µM): 93.1%
viability, T/C (second compound 0.00316 µM, first compound 3.16 µM): 83.7%
viability, T/C (second compound 0.00316 µM, first compound 10 µM): 0.64%
viability, T/C [11]: 73.6%
viability, T/C [12]: 72.5%
viability, T/C (second compound 0.01 µM, first compound 0.316 µM): 73.8%
viability, T/C (second compound 0.01 µM, first compound 1 µM): 78.4%
viability, T/C (second compound 0.01 µM, first compound 3.16 µM): 74.5%
viability, T/C (second compound 0.01 µM, first compound 10 µM): 0.66%
viability, T/C [17]: 50.7%
viability, T/C [18]: 46%
viability, T/C (second compound 0.0316 µM, first compound 0.316 µM): 40.8%
viability, T/C (second compound 0.0316 µM, first compound 1 µM): 45.7%
viability, T/C (second compound 0.0316 µM, first compound 3.16 µM): 37.6%
viability, T/C (second compound 0.0316 µM, first compound 10 µM): 2.52%
viability, T/C [23]: 18.3%
viability, T/C [24]: 17.4%
viability, T/C (second compound 0.1 µM, first compound 0.316 µM): 17.1%
viability, T/C (second compound 0.1 µM, first compound 1 µM): 18.9%
viability, T/C (second compound 0.1 µM, first compound 3.16 µM): 17.3%
viability, T/C (second compound 0.1 µM, first compound 10 µM): 0.92%
viability, T/C [29]: 7.34%
viability, T/C [30]: 5.95%
viability, T/C (second compound 0.316 µM, first compound 0.316 µM): 6.85%
viability, T/C (second compound 0.316 µM, first compound 1 µM): 7.94%
viability, T/C (second compound 0.316 µM, first compound 3.16 µM): 7.74%
viability, T/C (second compound 0.316 µM, first compound 10 µM): 1.13%
viability, T/C [35]: 1.84%
viability, T/C [36]: 1.61%
viability, T/C (second compound 1 µM, first compound 0.316 µM): 1.73%
viability, T/C (second compound 1 µM, first compound 1 µM): 2.48%
viability, T/C (second compound 1 µM, first compound 3.16 µM): 2.83%
viability, T/C (second compound 1 µM, first compound 10 µM): 0.45%
